{"source": "patent US20150190416A1", "about": "“FILAGGRIN PRODUCTION PROMOTER, THERAPEUTIC AGENT FOR DISEASES ASSOCIATED WITH REDUCTION IN PRODUCTION OF FILAGGRIN, AND METHOD FOR SCREENING FOR SAID THERAPEUTIC AGENT” (KYOTO UNIVERSITY, priority 2012, published 2015)", "key": {"GPR142 mRNA": {"system": "GPR142 mRNA", "assay": "GPR142 mRNA expression in NHEK cells, real-time PCR (Example 4)", "type": "cell-based, human", "settings": "Compound 1 1 μM, Ca 1.2 mM, 3 days, compared to the control", "experimental": "(§1) In this example, the expression-inducing effects of Compound 1 on GPR142 mRNA and GPR22 mRNA in NHEK cells were confirmed.\n(§2) 1) 5×10^4 cells/well of NHEK cells (Invitrogen) were plated on a 24-well plate. Then, 500 μl of a culture medium containing a medium for proliferating normal human epidermal keratinocytes (HuMedia-KG2, KURABO INDUSTRIES LTD.) supplemented with hEGF (0.1 ng/ml), insulin (10 μg/ml), hydrocortisone (0.5 μg/ml), gentamycin (50 μg/ml), amphotericin B (50 ng/ml), and bovine brain pituitary extract (BPE) (0.4%, v/v) were added to the plate, and the cells were cultured under the conditions of 37° C. and 5% CO2.\n(§3) 2) After culture under the conditions of the step 1) for 1 day, the medium was exchanged for the culture medium of the step 1) to which a DMSO solution of Compound 1 was added at 1 μM per well every day and the culture was conducted for 3 days. […]\n(§4) 3) An extraction reagent (TRIzol™, Invitrogen) was used, and according to the manufacturer's protocol, total RNA was extracted from each of cells treated with the medicament. […] Next, real-time PCR was conducted by using the following primers and SYBR™ Premix Ex Taq (Takara) with a CFX96 real-time PCR instrument according to the manufacturer's protocol, and the amounts of GPR142mRNA and GPR22mRNA expression were measured. […]"}, "FLG monomer": {"system": "FLG monomer", "assay": "FLG monomer-producing effect in atopic dermatitis mouse model (NC/Nga), Western blotting (Example 15)", "type": "in vivo", "settings": "oral 0.75 mg every other day, 2 weeks, ear epidermis", "experimental": "Experiments were conducted with raising 6- to 10-week-old atopic dermatitis-developing NC/Nga mice with mites (Japan SLC, Inc.) under a normal environment. Namely, 500 μl of a solution obtained by dissolving Compound 1 at 1.5 mg/ml in a methyl cellulose solution (0.5 W/V % Methyl Cellulose 400 Solution, Wako, 133-14255) were orally administered to an NC/Nga mouse developing dermatitis majorly in the ear auricles and the head (0.75 mg of Compound 1 was administered to the mouse per time) every other day. As a control, 500 μl of the methyl cellulose solution was orally administered every other day. The experiments were conducted by using five mice in each of a Compound 1-administered group and a control group.\n2 weeks after the beginning of administration, ears of each mouse were cut under anesthesia, the skin of the cut ear was peeled off by pinching cartilage, and the skin on the dermal side was soaked in PBS containing 20 mM EDTA at 37° C. for 30 minutes. Next, the epidermis of the ear was peeled off and […] of Lysis buffer (0.1 M Tris-HCl (pH 9.0), 6 M Urea, 1% 2-mercapto-ethanol, 1% SDS, 1 mM EDTA, and Protease inhibitor cocktail) were added to the epidermis. The epidermis was homogenized with an electrically powered pestle, and the homogenized cells were centrifuged at 15,000 rpm at 4° C. for 20 minutes. […]"}, "GPR22 mRNA": {"system": "GPR22 mRNA", "assay": "GPR22 mRNA expression in NHEK cells, real-time PCR (Example 4)", "type": "cell-based, human", "settings": "Compound 1 1 μM, 3 days", "experimental": "as §1, §2, §3, §4"}, "FLG protein": {"system": "FLG protein", "assay": "FLG protein in cultured human normal skin, immunohistostaining (Example 12)", "type": "cell-based", "settings": "1 μM, 4 days", "from_the_text": "In this example, the expression-increasing effect of Compound 1 (N-quinolylbenzamide derivative) on FLG monomer was examined by using human normal skin. The expression of the FLG monomer was confirmed by an immunohistostaining method using an anti-human FLG antibody. The medium used was a medium for proliferating normal human epidermal keratinocytes (HuMedia-KG2, KURABO INDUSTRIES LTD.). It should be noted that, in this example, surplus portions of normal skin derived from extirpation of portions of a skin disease were used under the agreement by the donor through Ethics Committee of Kyoto University.\n1) Human normal skin (with a size of 5×5×5 mm) was put on a transwell of a 24-well transwell plate, 500 μl of the medium, to which Compound 1 (1 μM) or a control (vehicle (DMSO)) was added, were added to the lower part, and the skin was cultured. After culture for 2 days, the medium was exchanged for the same medium.\n2) After 4 days, the cultured skin was collected, and was soaked in 10% formalin overnight, and thereafter, a paraffin section having a thickness of […] was prepared according to a conventional method. […]"}, "GPR22": {"system": "GPR22", "assay": "Blocking effect by GPR22 RNAi in NHEK cells (Reference Example 1)", "type": "cell-based, human", "settings": "calcium priming, siRNA 10 nM, Compound 1 10 nM, 1 day", "experimental": "as §2\n2) 1 day after the step 1), the medium was exchanged for the medium supplemented with calcium every day, and culture was conducted for 2 days (priming).\n3) The NHEK cells of the step 2) were transfected with 10 nM of siRNA per well of the 24-well plate by using a transfection reagent, Lipofectamine RNA Max (Invitrogen) according to the manufacturer's protocol.\n4) After culture for 1 day after the step 3), the medium was exchanged for a medium to which Compound 1 dissolved in DMSO was added at 10 nM per well on the 24-well plate, and culture was conducted for 1 day. As a control example, a solvent only (vehicle) was added.\n5) An extraction reagent (TRIzol™, Invitrogen) was used, and according to the manufacturer's protocol, total RNA was extracted from each of cells treated with the medicament. A reverse transcriptase reagent (Prime Script™, Takara) was used, and according to the manufacturer's protocol, cDNA was prepared from the total RNA. Real-time PCR was conducted by using SYBR™ Premix Ex Taq (Takara) with a CFX96 real-time PCR instrument according to the manufacturer's protocol, and the amounts of GPR22 mRNA and FLG mRNA were measured. The results of measurement are shown as a GAPDH ratio."}}}
{"smiles": "CCc1ccc(OCc2ccccc2C(=O)Nc2ccc3nc(C)cc(N)c3c2)cc1.Cl", "note": "[Compound 1, N-(4-Amino-2-methyl-6-quinolyl)-2-[(4-ethylphenoxy)methyl]benzamide hydrochloride]", "values": [{"measurement": "GPR142 mRNA expression (GAPDH ratio)", "setting": "GPR142 mRNA", "value": "GPR142 mRNA expression was induced"}, {"measurement": "production of FLG monomer (relative to GAPDH)", "setting": "FLG monomer", "value": "clearly promoted the production of FLG monomer"}, {"measurement": "GPR22 mRNA expression (GAPDH ratio)", "setting": "GPR22 mRNA", "value": "induced GPR22 mRNA expression"}, {"measurement": "development of the stratum corneum", "setting": "FLG protein", "value": "greater than that of the control"}, {"measurement": "FLG protein within the skin", "setting": "FLG protein; immunohistostaining", "value": "markedly increased"}, {"measurement": "FLG mRNA expression in the presence of GPR22 siRNA", "setting": "GPR22", "value": "not suppressed"}, {"measurement": "GPR22 mRNA expression in the presence of GPR22 siRNA", "setting": "GPR22", "value": "suppressed by GPR22 siRNA"}]}
